These results are taken from patent US20250282830A1, “ANTI-VIRAL PEPTIDE COMPOSITIONS AND METHODS TO IMPROVE BIOLOGICAL ACTIVITY THEREOF” (priority 2021, published 2025).

Data set [1] can be described thus: Blood-to-brain influx assessment (BBB transport). Format: in vivo, ICR-CD-1 mice. The following applies: mice. On the procedure:
Female, Institute for Cancer Research, Caesarean Derived-1 (ICR-CD-1) mice (7 to 10 weeks old; Envigo) were used to assess the in vivo blood-brain barrier (BBB) transport properties of AH-D peptide. The BBB permeability of AH-D was evaluated according to multiple time regression (MTR) analysis. In brief, mice were anesthetized by injecting 40% urethane intraperitoneally. Approximately 200 μl of AH-D peptide solution (10 mg kg^−1) was injected into the jugular internalis vein, then blood samples were collected from the carotid artery at selected time points after injection (minimum five time points per compound). Immediately after blood collection, the mice were euthanized by decapitation. The collected blood samples were centrifuged at 10,000 g for 15 min at 21° C. and the brains were isolated. The brain and the serum of each mouse were then analysed using a validated bio-analytical, ultrahigh-performance liquid chromatography tandem mass spectrometry method. Modelling of the data was performed according to the linear Gjedde-Patlak equation, giving the influx rate constant Kin (unidirectional clearance) of AH-D peptide. The molar concentration in the brain was also calculated by converting the mass of peptide per mass of brain tissue into the mass of peptide per volume of brain tissue by assuming the brain density to be 1.04 g ml^−1. […]

Data set [2] in a line: Pharmacokinetic characterization. Type of data set: in vivo, BALB/c mice. The following applies: mice. The protocol:
Male BALB/c mice (InVivos) aged 8-9 weeks were used during the pharmacokinetic characterization experiments. In brief, mice were anaesthetized by isoflurane. AH-D peptide solution (25 mg kg^−1) was then administered by the intravenous (i.v.) route (tail vein). Blood samples were taken by cardiac puncture under isoflurane anaesthesia at regular time points after injection (eight time points per compound). The administered dose was maintained at 5 ml kg^−1. Selected organs were collected after euthanasia and were stored at −80° C. until bioanalysis. Blood samples were mixed with deionized water while tissue samples were homogenized in deionized water before extraction. The samples were then treated with phosphoric acid (5 μl), followed by acetonitrile (25 μl) that contained 15 ng ml^−1 imipramine internal standard, 5% ammonium hydroxide (25 μl), deionized water (100 μl) and 5% Tween-20 (20 μl), before vortexing. The processed samples were then added to pre-activated Strata-X Solid Phase Extraction cartridges (30 mg per 1 ml; Phenomenex), and washed with 500 μl of deionized water, followed by elution in 75/25 acetonitrile/methanol with 1% formic acid. […] The blood and tissue samples were then analysed using a validated bio-analytical, ultra-performance liquid chromatography tandem mass spectrometry method. […]

For a further data set, the system named is DENV-1. Kind of data set: Plaque reduction neutralization assay, DENV-1. Format: cell-based, Dengue virus serotype 1. As to conditions: Vero cells; virus pre-incubated with peptide 1 h at 37° C.; read-out: DENV-1 PRNT50. On the procedure:
(§1) Vero cells were seeded at 1×10^5 cells per well and incubated overnight. Twofold serial dilutions of peptide were incubated with 200-300 p.f.u. of virus for 1 h at 37° C. Cells were infected with the virus-peptide mixture for 1 h at 37° C. The inoculum was removed and 0.8% (wt/vol) methylcellulose in medium supplemented with 1% FBS was added. After 3-5 days incubation, plates were fixed and analysed for plaques by immunostaining (DENV). For immunostaining, the cells were fixed, followed by incubation with 4G2, a mouse anti-DENV E protein monoclonal antibody (1:2,000 dilution), for 16-20 h. After addition of a secondary antibody, goat anti-mouse IgG (H+L)-HRP conjugate (1:2,000 dilution), the TrueBlue peroxidase substrate (KPL) was added and the optical density was measured at a wavelength of 450 nm. For crystal violet staining, cells were fixed with fixing solution (5% glutaric dialdehyde in Dulbecco's PBS) followed by staining with 0.1% crystal violet in fixing solution. The IC50 value was calculated by comparing the relative number of plaques in peptide-treated samples to virus-only samples using a four-parameter logistic curve fit.
Background: Plaque reduction counts the foci of infection that form in a cell layer.

For another data set, the system named is DENV-4. Put plainly: Plaque reduction neutralization assay, DENV-4. As to conditions: Vero cells; virus pre-incubated with peptide 1 h at 37° C.; read-out: DENV-4 PRNT50. Format: cell-based, Dengue virus serotype 4. On the procedure:
as §1

Another data set deals with DENV-2. Kind of data set: Plaque reduction neutralization assay, DENV-2. Format: cell-based, Dengue virus serotype 2. As to conditions: Vero cells; virus pre-incubated with peptide 1 h at 37° C.; read-out: DENV-2 PRNT50. On the procedure: as §1
For another data set, the system named is DENV-3. Put plainly: Plaque reduction neutralization assay, DENV-3. Format: cell-based, Dengue virus serotype 3. As to conditions: Vero cells; virus pre-incubated with peptide 1 h at 37° C.; read-out: DENV-3 PRNT50. On the procedure: as §1
The nature of data set [3]: Time-lapse fluorescence microscopy imaging of peptide-induced vesicle rupture. The following applies: small and large tethered vesicles. The protocol: Highly parallel measurements of peptide-induced liposome rupture were conducted by time-lapsed epifluorescence microscopy imaging. An Eclipse Ti-E inverted microscope (Nikon) with a high-pressure mercury lamp, a CFI Plan Apochromat TIRF×60 oil-immersion objective (NA 1.49; Nikon) and an Andor iXon3 897 EMCCD camera (Andor Technology), was utilized for measurements. The samples were illuminated with a mercury lamp (Intenslight C-HGFIE) using a TRITC filter set. Briefly, glass coverslips were assembled into a microfluidic flow cell, and coated with a thin layer of PLL-g-PEG(-biotin), followed by tethering of 0.025 μg ml^−1 liposomes via biotin-neutravidin coupling. Peptide was then added at a volumetric rate of 100 μl min^−1, and micrographs were recorded every 5-30 s depending on the particular experiment. The initial time was defined by when the peptide solution entered the channel inlet. Data processing and analysis were conducted using ImageJ (National Institutes of Health) and Python(x,y) software packages. The diameter of individual liposomes was estimated based on fluorescence intensity values. […]
Using time-lapse fluorescence microscopy imaging, we further investigated the interactions of different versions of Peptides 2 and 4 with tethered vesicles at the single-vesicle level and saw different degrees of vesicle rupture in terms of total extent and speed (FIG. 14).

`CC[C@@H](C)[C@@H](NC(=O)[C@@H](Cc1c[nH]c2ccccc12)NC(=O)[C@@H](CC(=O)O)NC(=O)[C@@H](Cc1c[nH]c2ccccc12)NC(=O)[C@H](NC(=O)[C@@H](CC(=O)O)NC(=O)[C@@H](CCCNC(=N)N)NC(=O)[C@@H](CC(C)C)NC(=O)[C@@H](Cc1c[nH]c2ccccc12)NC(=O)[C@@H](CO)NC(=O)CNC(=O)[C@H](N)CO)C(C)C)C(=O)N[C@H](CS)C(=O)N[C@@H](C(=O)N[C@@H](C(=O)N[C@H](CC(C)C)C(=O)N[C@@H](C(=O)N[C@H](CC(=O)O)C(=O)N[C@H](Cc1ccccc1)C(=O)N[C@H](CCCCN)C(=O)N[C@@H](C(=O)N[C@H](Cc1c[nH]c2ccccc12)C(=O)N[C@H](CC(C)C)C(=O)N[C@H](CCC(N)=O)C(=O)N[C@H](CO)C(=O)N[C@H](CCCCN)C(=O)N[C@H](CC(C)C)C(=O)O)[C@H](C)O)[C@H](C)O)C(C)C)[C@H](C)O` [AH-D peptide]: the “Blood brain barrier (BBB) crossing” value is recorded as “able to cross the blood brain barrier” in data set [1] and “BBB-crossing activity to achieve therapeutic concentrations in the brain” in data set [1] (listed as D-amino acid version of peptide 2). The Bioavailability result in data set [2] is “high bioavailability”. In addition, the Circulation half-time entry in data set [2] (25 mg kg−1 i.v.) is recorded as “relatively long circulation half-time”.

For the molecule “SDDWLRIIWDWVCSVVSDFKAWLSAKI [Peptide O5O]”, the IC50 in the data set with DENV-1 came out at 37.2 nM; with DENV-4, 278 nM; in the data set with DENV-2, 164 nM; in the data set on DENV-3, 176 nM.

Regarding “SDDWLRTIWDWVCSVLADFKAWLSAKI [Peptide N7N]”, the IC50 in the data set on DENV-1 worked out at 171 nM; in the data set on DENV-4 it was 242 nM; in the data set on DENV-2 it was 562 nM; in the data set on DENV-3, 1140 nM.

“SDDWLRTIWDWVCSVLADFKAWLSAKI [Peptide N7O]”: the IC50 was found to be 723 nM in the data set on DENV-1, 198 nM with DENV-4, 1880 nM in the data set on DENV-2 and 2380 nM in the data set with DENV-3.

Consider “SDDWLRTIWDWVCSVLADFKAWLSAKI [Peptide O7O]”, for which the IC50 with DENV-1 worked out at 36 nM; with DENV-4 it was 433 nM; with DENV-2, 299 nM; with DENV-3, 213 nM.

Turning to “SGDWLRIIWDWVCSVVSDFKTWLSAKI [Peptide N6N]”, the IC50 was 162 nM with DENV-1, 165 nM with DENV-4, 536 nM in the data set on DENV-2 and 2780 nM in the data set with DENV-3.

For the molecule “SGDWLRIIWDWVCSVVSDFKTWLSAKI [Peptide N6O]”, the IC50 in the data set with DENV-1 amounted to 218 nM; in the data set with DENV-4, 273 nM; in the data set on DENV-2 it was 554 nM; in the data set on DENV-3 it was 1470 nM.

Turning to “SGDWLRIIWDWVCSVVSDFKTWLSAKI [Peptide O6O]”, the IC50 amounted to 68 nM in the data set with DENV-1, 273 nM in the data set with DENV-4, 412 nM with DENV-2 and 334 nM with DENV-3.

With “SGSWLRDIWDWICEVLSDFKTWLKAKL [Peptide N1N]”, the IC50 in the data set with DENV-1 came out at 218 nM; in the data set with DENV-4, 1100 nM; in the data set on DENV-2 it was 402 nM; in the data set with DENV-3, 3230 nM.

As for “SGSWLRDIWDWICEVLSDFKTWLKAKL [Peptide N1O]”, the IC50 with DENV-1 stood at 219 nM; with DENV-4, 294 nM; in the data set with DENV-2, 363 nM; in the data set with DENV-3, 974 nM.

Consider “SGSWLRDIWDWICEVLSDFKTWLKAKL [Peptide O1O]”, for which the IC50 worked out at 132 nM in the data set with DENV-1, 286 nM in the data set on DENV-4, 242 nM in the data set on DENV-2 and 175 nM in the data set with DENV-3.

Regarding “SGSWLRDIWEWVCSILTDFKNWLSAKL [Peptide N4N]”, the IC50 with DENV-1 is 281 nM; in the data set on DENV-4, 984 nM; in the data set with DENV-2, 1350 nM; with DENV-3 it was 3880 nM.

Consider “SGSWLRDIWEWVCSILTDFKNWLSAKL [Peptide N4O]”, for which the IC50 is 278 nM in the data set on DENV-1, 333 nM in the data set with DENV-4, 556 nM with DENV-2 and 2790 nM with DENV-3.

Turning to “SGSWLRDIWEWVCSILTDFKNWLSAKL [Peptide O4O]”, the IC50 turned out to be 365 nM in the data set with DENV-1, 1560 nM in the data set on DENV-4, 1210 nM with DENV-2 and 2190 nM in the data set on DENV-3.

Take “SGSWLRDVWDWICTVLTDFKTWLQSKL [Peptide N2N]”: the IC50 with DENV-1 was found to be 115 nM; with DENV-4, 171 nM; in the data set with DENV-2, 290 nM; with DENV-3, 436 nM. Further, the “Dependence of vesicle rupture on vesicle size (membrane-curvature sensing), single-vesicle analysis” value in data set [3] is given as “have membrane-curvature sensing mechanisms”.

Take “SGSWLRDVWDWICTVLTDFKTWLQSKL [Peptide N2O]”: the IC50 came to 146 nM in the data set with DENV-1, 266 nM in the data set with DENV-4, 384 nM in the data set on DENV-2 and 662 nM in the data set on DENV-3. Besides, the “Dependence of vesicle rupture on vesicle size (membrane-curvature sensing), single-vesicle analysis” value in data set [3] is recorded as “ruptured vesicles independently of vesicle size”.

For the molecule “SGSWLRDVWDWVCTILTDFKNWLTSKL [Peptide N3N]”, the IC50 with DENV-1 came to 121 nM; in the data set with DENV-4, 139 nM; with DENV-2, 389 nM; in the data set on DENV-3, 936 nM.

Consider “SGSWLRDVWDWVCTILTDFKNWLTSKL [Peptide N3O]”, for which the IC50 with DENV-1 came out at 182 nM; in the data set on DENV-4, 288 nM; in the data set on DENV-2, 308 nM; in the data set with DENV-3, 1020 nM.

For the molecule “SGSWLRDVWDWVCTILTDFKNWLTSKL [Peptide O3O]”, the IC50 stood at 148 nM in the data set on DENV-1, 267 nM in the data set on DENV-4, 292 nM with DENV-2 and 237 nM in the data set on DENV-3.
